Test results as given in patent US9476099B2 (TRUSTEES OF DARTMOUTH COLLEGE, priority 2012, dated 2016).

Assays:
[1] = tested on: RIN1, SOX15 and TLR4 promoter in NT2/D1 cells; test: Promoter specific bisulfite pyrosequencing; type: cell-based; conditions: 10 nM, 3 days, FIG. 13
From the text: The graph depicts an average of triplicate sample determinations. Error bars are standard deviation. **=p<0.005. SOX15 values represent the average methylation value across two CpG sites. RIN1 and TRL4 values represent the average methylation across three CpG sites.
(§1) However, methylation changes were less robust in the experiments in NT2/D1 cells. Only 12 genes were identified as having significant decreases in promoter methylation. […] These six genes included RIN1, SOX15, TLR4, GPER, TRIM54, and CD164L2.
(§2) Genomic DNA was isolated with the QIAMP DNA mini kit (Qiagen) and bisulfite converted with the EZ DNA methylation kit (Zymo Research). DNA was amplified with HOTSTARTAQ plus DNA polymerase (Qiagen). The LINE-1 pyrosequencing assay averages across four CpG sites and has been described previously (Kashiwagi et al. 2011. Nucleic Acids Res. 39:874-888). Pyrosequencing assays for RIN1, SOX15, and TLR4 were designed with PyroMark assay design software (Qiagen) to sequence across corresponding probes cg0599842, cg02515422 and cg13098960 on the HumanMethylation27 BeadChip.

[2] = tested on: colorectal cancer, cancer of the head and neck, renal carcinoma, or malignant melanoma; conditions: 75 mg/m^2, 3 treatments in one day, repeated once a week for 5 weeks; Abele et al. 1987; cited from earlier work
[3] = tested on: phosphorylated H2AX in NT2/D1-R1 cells; test: DNA damage by induction of phosphorylated H2AX (western blot); type: cell-based; conditions: three day decitabine treatment
From the text: Importantly, decitabine-mediated H2AX activation also occurs in the presence of the caspase 3 inhibitor (Z-VAD-FMK) at concentrations that inhibit PARP cleavage.
(§3) SYBR green-based real-time PCR (Applied Biosystems) was employed using the ddCT method normalized to GAPDH. For western blot analysis cells were lysed in radioimmune precipitation buffer and separated by SDS-PAGE. Antibodies to actin (sc01615, Santa Cruz), 139-H2AX (Cell Signaling), PARP (c-2-10, Biomol International) and p53 (D0-1, Santa Cruz) were used.

U87 glioblastomoa cells = test: Decitabine treatment of glioblastoma cells; type: cell-based; conditions: doses as high as 1 μM
[4] = tested on: RIN1, SOX15 and TLR4 in NT2/D1 cells; test: Real-time PCR of gene expression; type: cell-based; conditions: 10 nM, 3 days, FIG. 14
From the text: The graph depicts an average of triplicate sample determinations. Error bars are standard deviation. *=p<0.05; **=p<0.005.
as §1, §3

[5] = tested on: non-seminiferous testicular cancer (germ cell testicular cancer); conditions: 75 mg/m^2, 3 infusions in one day, repeated once a week for 5 weeks; Clavel et al. 1992; cited from earlier work
[6] = tested on: EC cell lines (NT2/D1, NT2D1/R1, 833K, 833KCP, and Tera-1); test: Cell-Titre Glo viable cell growth and survival, all EC cell lines; type: cell-based; conditions: 10 to 5000 nM added fresh each day for three days; FIG. 1
Experimental: Indicated doses of decitabine were added fresh each day for three days to exponentially growing cultures. Viable cell growth and survival were measured. Data are normalized to no drug treatment. EC cells are NT2/D1, NT2D1/R1, 833K, 833KCP, and Tera-1. Data are the average of 3 experiments in biological duplicate except for MCF-7 cells, which were assayed twice. Error bars are standard deviation (S.D.).
Cell growth and viability of five EC cell lines (NT2/D1, NT2D1/R1, 833K, 833KCP, and Tera-1) were determined, including two cell lines that are cisplatin-resistant (NT2/D1-R1 and 833KCP). Three control somatic tumor cell lines were also tested (HCT116, MCF7 and U2OS). […] Viable cell growth and survival were measured using Cell-Titre Glo (Promega) assays. […] These higher values are similar to the values shown in FIG. 1 for somatic tumor cell lines (MCF7, U2OS and HCT116).
NT2/D1, NT2D1-R1, 833K, 833K-CP, Tera-1, U20S, and HCT116 cells were cultured in DMEM with 10% FBS supplemented with glutamine and antibiotics except for MCF7 cells that were cultured in F12-DMEM. The derivation of the NT2/D1-resistant NT2/D1-R1 cell line has been previously described (Curtin et al. 2001. Oncogene 20:2559-2569; Kerley-Hamilton et al. 2007. Biochim. Biophys. Acta 1769:209-219). Cells were treated with the indicated dosages of 5-azadeoxycytidine (5-aza-CdR) for 3 days. This drug was replenished each day. […]

[7] = tested on: LINE-1 elements in NT2/D1 cells; test: LINE-1 element bisulfite pyrosequencing (global DNA methylation); type: cell-based; conditions: low dose decitabine
From the text: as §2

833K-CP cells = test: Cisplatin sensitivity (cell viability) after low dose decitabine pretreatment; type: cell-based; conditions: 2.5 nM 3 days, 24 hour recovery, cisplatin 6 hours, viability 3 days later
Experimental: (§4) Cell viability was assayed 3 days later. For NT2D1-R1 cells, 10 nM decitabineR was employed. […] Data are the average of biological triplicates and representative of at least two experiments. Error bars are standard error of the mean (SEM).
(§5) Cell viability was assayed 3 days later. For NT2D1-R1 cells, 10 nM decitabineR was employed. […] Data are the average of biological triplicates and representative of at least two experiments. Error bars are SEM.
(§6) Five distinct lentiviral shRNAs for DNMT3B (sh84, sh85, sh86, sh87, and sh88) were used to knock down DNMT3B expression. Six potential alternatively spliced isoforms of DNMT3B exist; the most biologically relevant isoforms are variants 1, 2, 3 and 6 (Jones, P. A. and S. B. Baylin. 2007. Cell 128:683-692). […] Western blot analysis of NT2/D1 and NT2/D1-R1 cells was also performed with cells treated with DNMT3B shRNA ([…]) and employing DNMT3B antibody, H-230. The results confirmed the reduced expression of DNMT3B when the shRNA were employed. None of the DNMT3B-specific shRNAs affected levels of DNMT1 or DNMT3A (FIG. 2). […] However, knockdown of DNMT3B by itself had no apparent effect on the growth of NT2/D1 or NT2/D1-R1 cells. […] It had been previously reported that cisplatin causes a global p53-dominant transcriptional response in EC cells (Kerley-Hamilton et al. 2005. Oncogene 24:6090-6100). […]

NT2/D1-R1 cells = test: as above; type: cell-based; conditions: 10 nM 3 days, 24 hour recovery, cisplatin 6 hours, viability 3 days later
Experimental: as §4, §5, §6

Nc1ncn([C@H]2C[C@H](O)[C@@H](CO)O2)c(=O)n1 [decitabine, 5-aza-deoxycytidine]
promoter methylation of RIN1, SOX15 and TLR4 (bisulfite pyrosequencing) [1]: decreased promoter methylation | efficacy against cancer in patients [2]: no efficacy | DNA damage assessed by induction of phosphorylated H2AX [3]: induced DNA damage | effect of decitabine treatment on U87 cells (U87 glioblastomoa cells): unaffected | expression of RIN1, SOX15 and TLR4 (real-time PCR) [4]: increased expression | activity in Phase II clinical trial patients [5]: no activity | growth of all EC cell lines [6]: inhibited | global DNA methylation (LINE-1 bisulfite pyrosequencing) [7]: significant reduction in global DNA methylation | effect of low dose decitabine pretreatment on cisplatin-induced growth suppression and toxicity (833K-CP cells): restored cisplatin-induced growth suppression and toxicity | effect of low dose decitabine pretreatment on cisplatin-induced growth suppression and toxicity (NT2/D1-R1 cells): restored cisplatin-induced growth suppression and toxicity
